Data as given in PMC4518100, “Design and Synthesis of New Benzimidazole and Pyrimidine Derivatives as α-glucosidase Inhibitor” (Iranian Journal of Pharmaceutical Research : IJPR, 2015).

How the values were obtained:
yeast α-glucosidase = yeast α-glucosidase (Saccharomyces cerevisiae, UniProt P53341); assay: Yeast α-glucosidase inhibition assay (pNPG substrate, absorbance at 405 nm); type: biochemical; conditions: qualitative statement
Description: (§1) In this study the inhibition study of both yeast and mammalian α-glucosidase were measured through the earlier reported bioassay method with minor changes ([4]). This test was carried out using the substrate p-nitrophenyl-α-D-glucopyranoside (pNPG), which is hydrolyzed by α-glucosidase to release the product p-nitrophenol, a color agent that can be monitored at 405 nm. For yeast α-glucosidase, mixture contained 20 µL of the enzyme (0.5 unit/mL), 120 µL of 0.1 M phosphate buffer (pH 6.9) and 10 µL of test sample at various concentrations. The mixed solution was incubated in 96-well plates at 37 °C for 15 min. After preincubation the enzymatic reaction was initiated by adding 20 µL of 5 mM pNPG solution in 0.1 M phosphate buffer (pH 6.9) and the reaction mixture was incubated for another 15 min at 37 °C. The reaction was terminated by adding 80 µL of 0.2 M sodium carbonate solution and then absorbance reading was recorded at 405 nm by microplate reader. The reaction system without tested samples was used as control and the system without α-glucosidase was used as blank for correcting the background absorbance. The inhibitory rate of sample on α-glucosidase was calculated by the following formula:
(§2) % Inhibition=control absorbance-sample absorbance/control absorbance×100

[1] = test system: rat intestinal α-glucosidase; assay: Mammalian α-glucosidase inhibition assay (rat intestinal acetone powder, pNPG substrate); type: biochemical; conditions: for inhibition of rat intestinal α-glucosidase (in words): qualitative statement; for IC50: rat intestinal α-glucosidase, pNPG, pH 6.9, 37 °C, na: no activity
Description: as §1, §2
The mammalian α-glucosidase were prepared from rat intestinal acetone powder (1 g), which was extracted by 25 mL of 0.1 M phosphate buffer (pH 6.9) containing 5 mM EDTA at ambient temperature. After sonication (10 min) and centrifugation (10000×g, 20 min) the obtained supernatant was dialyzed against […] phosphate buffer (pH 6.9) for 24 h. The final supernatant was used for the assay. The mammalian α-glucosidase inhibition test was carried out in the same manner as that of the yeast α-glucosidase.

Sequence of yeast α-glucosidase (P53341 whole entry): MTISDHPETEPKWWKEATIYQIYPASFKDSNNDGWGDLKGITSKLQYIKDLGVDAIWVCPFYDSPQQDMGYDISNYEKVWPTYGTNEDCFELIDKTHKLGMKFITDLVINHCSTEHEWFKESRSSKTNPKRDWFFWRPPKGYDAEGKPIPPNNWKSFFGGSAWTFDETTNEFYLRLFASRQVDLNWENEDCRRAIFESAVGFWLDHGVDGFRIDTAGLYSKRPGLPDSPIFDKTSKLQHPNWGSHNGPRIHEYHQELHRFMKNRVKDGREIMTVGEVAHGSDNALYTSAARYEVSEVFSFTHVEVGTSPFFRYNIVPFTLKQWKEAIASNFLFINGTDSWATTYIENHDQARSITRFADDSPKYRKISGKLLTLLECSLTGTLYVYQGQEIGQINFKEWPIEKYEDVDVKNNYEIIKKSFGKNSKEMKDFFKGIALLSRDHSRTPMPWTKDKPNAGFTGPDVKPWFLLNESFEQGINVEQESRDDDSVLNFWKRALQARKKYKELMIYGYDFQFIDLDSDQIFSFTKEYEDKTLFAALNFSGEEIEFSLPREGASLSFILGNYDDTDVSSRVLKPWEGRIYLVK

| Compound | inhibition of yeast α-glucosidase (in words) (yeast α-glucosidase) | inhibition of rat intestinal α-glucosidase (in words) [1] | IC50 [1] |
| --- | --- | --- | --- |
| O=C1c2ccccc2C(=O)N1C(Cc1ccccc1)c1nc2ccccc2[nH]1 (stereo not shown) [4c, 2-(1-(1H-benzo(d)imidazol-2-yl)-2-phenylethyl)isoindoline-1,3-dione] | significantly higher inhibitory action than acarbose | significantly higher inhibitory action than acarbose | 48.5 ± 2.3 µM |
| O=C1c2ccccc2C(=O)N1C(Cc1ccc(O)cc1)c1nc2ccccc2[nH]1 (stereo not shown) [4d, 2-(1-(1H-benzo(d)imidazol-2-yl)-2-(4-hydroxyphenyl)ethyl)isoindoline-1,3-dione] | significantly higher inhibitory action than acarbose | significantly higher inhibitory action than acarbose | 36.7 ± 2.9 µM |
| O=C1c2ccccc2C(=O)N1CC1=Nc2cccc3cccc(c23)N1 [5a, 2-((1H-perimidin-2-yl)methyl)isoindoline-1,3-dione] | did not exert good inhibition activity | did not exert good inhibition activity | – |
| CCC(C)C(C1=Nc2cccc3cccc(c23)N1)N1C(=O)c2ccccc2C1=O (stereo not shown) [5b, 2-(2-methyl-1-(1H-perimidin-2-yl)butyl)isoindoline-1,3-dione] | did not exert good inhibition activity | did not exert good inhibition activity | – |
| O=C1c2ccccc2C(=O)N1C(Cc1ccccc1)C1=Nc2cccc3cccc(c23)N1 (stereo not shown) [5c, 2-(1-(1H-perimidin-2-yl)-2-phenylethyl)isoindoline-1,3-dione] | significantly higher inhibitory action than acarbose | significantly higher inhibitory action than acarbose | 35.9 ± 2.3 µM |
| O=C1c2ccccc2C(=O)N1C(Cc1ccc(O)cc1)C1=Nc2cccc3cccc(c23)N1 (stereo not shown) [5d, 2-(2-(4-hydroxyphenyl)-1-(1H-perimidin-2-yl)ethyl)isoindoline-1,3-dione] | significantly higher inhibitory action than acarbose | significantly higher inhibitory action than acarbose | 21.8 ± 1.7 µM |
| CC(C)CC(C1=Nc2cccc3cccc(c23)N1)N1C(=O)c2ccccc2C1=O (stereo not shown) [5e, 2-(3-methyl-1-(1H-perimidin-2-yl)butyl)isoindoline-1,3-dione] | did not exert good inhibition activity | did not exert good inhibition activity | – |
| C[C@H]1O[C@H](O[C@H]2[C@H](O)[C@@H](O)[C@@H](O[C@H]3[C@H](O)[C@@H](O)C(O)O[C@@H]3CO)O[C@@H]2CO)[C@H](O)[C@@H](O)[C@@H]1N[C@H]1C=C(CO)[C@@H](O)[C@H](O)[C@H]1O (stereo partly shown) [Acarbose, reference compound] | – | – | 37.5 ± 1.4 µM |
